Laboratory results: US9353082B2, “Pharmaceutical compounds” (BIAL—PORTELA & CA, S.A., priority 2008, dated 2016)

What follows are compounds tested against T1, FAAH (Rattus norvegicus, UniProt P97612) (assay: In vitro FAAH activity in rat brain membranes, 3H-AEA substrate, % of control). Conditions: 100 nM test compound, low value = strong inhibitor.
T1 construct: Frozen brains (without cerebellum) from Wistar rats were used; from tissue; host or cells: Wistar rat brain (without cerebellum), washed membrane pellets
T1 sequence (P97612 1-579): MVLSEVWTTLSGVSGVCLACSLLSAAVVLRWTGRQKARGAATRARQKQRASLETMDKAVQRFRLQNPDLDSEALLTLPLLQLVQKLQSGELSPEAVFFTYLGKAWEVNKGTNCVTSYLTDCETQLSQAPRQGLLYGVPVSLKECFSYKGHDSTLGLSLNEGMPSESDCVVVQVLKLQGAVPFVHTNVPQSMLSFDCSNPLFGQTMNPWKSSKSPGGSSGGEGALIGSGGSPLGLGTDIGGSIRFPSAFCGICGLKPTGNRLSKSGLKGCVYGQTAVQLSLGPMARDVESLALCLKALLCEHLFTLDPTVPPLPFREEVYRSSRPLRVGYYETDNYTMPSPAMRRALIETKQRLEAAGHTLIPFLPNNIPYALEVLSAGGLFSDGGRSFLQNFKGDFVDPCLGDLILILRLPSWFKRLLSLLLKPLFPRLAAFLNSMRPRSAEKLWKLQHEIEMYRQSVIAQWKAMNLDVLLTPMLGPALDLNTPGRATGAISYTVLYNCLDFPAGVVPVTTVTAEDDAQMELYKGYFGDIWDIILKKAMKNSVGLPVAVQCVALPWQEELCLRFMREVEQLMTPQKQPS
Format: biochemical, Wistar rats
Procedure: 3. Biological Efficacy of Compounds of the Invention The in vitro test was performed according to the protocol described below. The controls for both in vitro and in vivo were the reaction mix minus the test compounds. Therefore, a low value in Table 1 below for the test compounds indicates a strong inhibitor.
The in vitro pharmaceutical FAAH activity was determined according to the following method:
Frozen brains (without cerebellum) from Wistar rats were used, and each brain was homogenized in 15 ml 1 mM MgCL2, […] HEPES pH 7.0 with Potter Elvejhem (8 strokes at 500 rpm). Homogenates were centrifuged for 20 min at 36000 g at 4° C. (Beckman, 70Ti rotor). Pellets were resuspended in 15 ml of the same buffer and centrifuged under the same conditions. Pellets were resuspended in 15 ml of the same buffer and incubated for 15 min at 37° C. after which they were centrifuged for 20 min at 36000 g at 4° C. Each pellet was then resuspended in 15 ml 3 mM MgCl2, 1 mM EDTA, 50 mM Tris pH 7.4 and protein determined with BioRad Protein Assay (BioRad) using a standard curve of BSA (50-250 μg/ml). The membrane suspensions were aliquoted and stored at −80° C.
The FAAH activity was determined using AEA (labelled with 3H in the ethanolamine part of the molecule) as substrate and measuring the 3H-ethanolamine formed. Reaction mix (total volume of 200 up contained: 2 μM AEA (2 μM AEA+5 nM 3H-AEA), 0.1% fatty acid free BSA, 5 μg protein, in 1 mM EDTA, 10 mM Tris pH 7.6 and 10 μM or 0.1 μM compounds. Stock solutions of the compounds to test (10 mM) were prepared in 100% DMSO and the DMSO concentration in the assay was 0.1%. After a 15 min preincubation period at 37° C., reaction was started by the addition of the substrate solution ([…]). Reaction was carried out for 10 min before termination by the addition of 400 μl activated charcoal suspension (8 g charcoal in 32 ml 0.5 M HCl in continuous agitation). After a 30 min incubation period at room temperature with agitation, charcoal was sedimented by centrifugation in microfuge (10 min at 13000 rpm). 200 μl of the supernatant were added to 800 μl Optiphase Supermix scintillation cocktail previously distributed in 24-well plates. Counts per minute (cpm) were determined in Microbeta TriLux scintillation counter (10 min counting or until s=2).
In each assay blanks (no protein, usually below 200 cpm) and controls (no compound) were present. The results are reported in Table 1 as % of control after blank subtraction.

In Vitro FAAH activity, 100 nM | SMILES
91 % of control | CN(C(=O)n1cnc(-c2ccc(O)cc2)c1)c1ccc(F)cc1 [Compound 54, N-(4-fluorophenyl)-4-(4-hydroxyphenyl)-N-methyl-1H-imidazole-1-carboxamide]
90.7 % of control | O=C(Nc1ccc(Oc2ccccc2)cc1)n1nnc2ccccc21 [Compound 56, N-(4-phenoxyphenyl)-1H-benzo[d][1,2,3]triazole-1-carboxamide]
96.9 % of control | COc1ccc(NC(=O)n2nnc3ccccc32)cc1 [Compound 57, N-(4-methoxyphenyl)-1H-benzo[d][1,2,3]triazole-1-carboxamide]
100.4 % of control | O=C(Nc1ccc(F)cc1F)n1nnc2ccccc21 [Compound 59, N-(2,4-difluorophenyl)-1H-benzo[d][1,2,3]triazole-1-carboxamide]
93.8 % of control | O=C(Nc1ccccc1)n1nnc2ccccc21 [Compound 60, N-phenyl-1H-benzo[d][1,2,3]triazole-1-carboxamide]
93.7 % of control | O=C(Nc1ccc(Cl)cc1)n1nnc2ccccc21 [Compound 62, N-(4-chlorophenyl)-1H-benzo[d][1,2,3]triazole-1-carboxamide]
67.9 % of control | COc1ccc(-c2ncn(C(=O)N(C)c3ccccc3)n2)cc1 [Compound 64, 3-(4-methoxyphenyl)-N-methyl-N-phenyl-1H-1,2,4-triazole-1-carboxamide]
61 % of control | CN(C(=O)n1cnc(-c2ccc(Cl)cc2)n1)c1ccccc1 [Compound 67, 3-(4-chlorophenyl)-N-methyl-N-phenyl-1H-1,2,4-triazole-1-carboxamide]
73.2 % of control | CN(C(=O)n1cnc(-c2ccccc2)n1)c1ccc(F)cc1F [Compound 74, N-(2,4-difluorophenyl)-N-methyl-3-phenyl-1H-1,2,4-triazole-1-carboxamide]
97.1 % of control | CN(C(=O)n1nnc2ccccc21)c1ccc(N2CCOCC2)cc1 [Compound 76, N-methyl-N-(4-morpholinophenyl)-1H-benzo[d][1,2,3]triazole-1-carboxamide]
76.3 % of control | COc1cc(OC)cc(N(C)C(=O)n2nnc3ccccc32)c1 [Compound 77, N-(3,5-dimethoxyphenyl)-N-methyl-1H-benzo[d][1,2,3]triazole-1-carboxamide]
49.2 % of control | CN(C)c1ccc(N(C)C(=O)n2nnc3ccccc32)cc1 [Compound 81, N-(4-(dimethylamino)phenyl)-N-methyl-1H-benzo[d][1,2,3]triazole-1-carboxamide]
62.5 % of control | CN(C(=O)n1nnc2ccccc21)c1ccccn1 [Compound 84, N-methyl-N-(pyridin-2-yl)-1H-benzo[d][1,2,3]triazole-1-carboxamide]
105.4 % of control | O=C(Nc1ccc(-c2ccccc2)cc1)n1nnc2ccccc21 [Compound 88, N-(biphenyl-4-yl)-1H-benzo[d][1,2,3]triazole-1-carboxamide]
0 % of control | O=C(N1CCN(c2ccc(OCc3ccccc3)cc2)CC1)n1nnc2ccccc21 [Compound 91, (1H-benzo[d][1,2,3]triazol-1-yl)(4-(4-(benzyloxy)phenyl)piperazin-1-yl)methanone]
0 % of control | Cl.O=C(N1CCN(Cc2ccccc2)CC1)n1nnc2ccccc21 [Compound 93, (1H-benzo[d][1,2,3]triazol-1-yl)(4-benzylpiperazin-1-yl)methanone hydrochloride]

Continued, compound first:

SMILES | In Vitro FAAH activity, 100 nM
O=C(N1CCOCC1)n1ccc2cc(F)ccc21 [Compound 46, (5-fluoro-1H-indol-1-yl)(morpholino)methanone] | 104.3 % of control
COc1ccc2c(ccn2C(=O)N2CCOCC2)c1 [Compound 47, (5-methoxy-1H-indol-1-yl)(morpholino)methanone] | 97.2 % of control
O=C(N1CCOCC1)n1ccc2cc(O)ccc21 [Compound 52, (5-hydroxy-1H-indol-1-yl)(morpholino)methanone] | 102.7 % of control
COc1ccc(-c2ncn(C(=O)N3CCOCC3)n2)cc1 [Compound 65, (3-(4-methoxyphenyl)-1H-1,2,4-triazol-1-yl)(morpholino)methanone] | 86.5 % of control
COc1ccc(-c2ncn(C(=O)N(C)c3ccc(F)cc3)n2)cc1 [Compound 66, N-(4-fluorophenyl)-3-(4-methoxyphenyl)-N-methyl-1H-1,2,4-triazole-1-carboxamide] | 80.9 % of control
O=C(N1CCOCC1)n1cnc(-c2ccc(Cl)cc2)n1 [Compound 68, (3-(4-chlorophenyl)-1H-1,2,4-triazol-1-yl)(morpholino)methanone] | 73.5 % of control
CN(C(=O)n1cnc(-c2ccc(Cl)cc2)n1)c1ccc(F)cc1 [Compound 69, 3-(4-chlorophenyl)-N-(4-fluorophenyl)-N-methyl-1H-1,2,4-triazole-1-carboxamide] | 80.8 % of control
O=C(N1CCOCC1)n1nc(Cl)c2ccccc21 [Compound 72, (3-chloro-1H-indazol-1-yl)(morpholino)methanone] | 87.6 % of control
O=C(N1CCOCC1)n1cnc(-c2ccccc2)n1 [Compound 73, morpholino(3-phenyl-1H-1,2,4-triazol-1-yl)methanone] | 85.8 % of control
O=C(N1CCOCC1)n1cnc(-c2ccc(F)cc2F)n1 [Compound 78, (3-(2,4-difluorophenyl)-1H-1,2,4-triazol-1-yl)(morpholino)methanone] | 81.9 % of control
CN(C(=O)n1cnc(-c2ccc(F)cc2F)n1)c1ccc(F)cc1F [Compound 80, N,3-bis(2,4-difluorophenyl)-N-methyl-1H-1,2,4-triazole-1-carboxamide] | 89.5 % of control
Cl.O=C(N1CCC(N2CCCCC2)CC1)n1nnc2ccccc21 [Compound 82, 1,4′-bipiperidin-1′-yl(1H-benzo[d][1,2,3]triazol-1-yl)methanone hydrochloride] | 69.3 % of control
CN1CCN(C(=O)n2nnc3ccccc32)CC1.Cl [Compound 83, (1H-benzo[d][1,2,3]triazol-1-yl)(4-methylpiperazin-1-yl)methanone hydrochloride] | 2.5 % of control
CCCCCCCCCCCCNC(=O)n1nnc2ccccc21 [Compound 86, N-dodecyl-1H-benzo[d][1,2,3]triazole-1-carboxamide] | 0 % of control
O=C(N1CCOCC1)n1cc(-c2ccccc2)nn1 [Compound 89, morpholino(4-phenyl-1H-1,2,3-triazol-1-yl)methanone] | 4.5 % of control
Cl.O=C(N1CCC(N2CCOCC2)CC1)n1nnc2ccccc21 [Compound 90, (1H-benzo[d][1,2,3]triazol-1-yl)(4-morpholinopiperidin-1-yl)methanone hydrochloride] | 38.6 % of control
Cl.O=C(N1CCC(N2CCCC2)CC1)n1nnc2ccccc21 [Compound 92, (1H-benzo[d][1,2,3]triazol-1-yl)(4-(pyrrolidin-1-yl)piperidin-1-yl)methanone hydrochloride] | 96 % of control
